Consider 4 compounds from US20220322667A1, “MICROBIOCIDAL USE” (DSM IP ASSETS B.V., priority 2019, published 2022).

Each structure is given as a SMILES string.

Holding throughout (experiment): Antimicrobial challenge test in analogy to NF EN ISO 11930
Assay type in all cases: cell-based

One experiment deals with Candida albicans. The procedure: (§1) The antimicrobial efficacy was assessed in analogy to the regulatory challenge test method (NF EN IS011930). Thus, mixtures of the respective active(s) with physiological serum with 0.85 wt.-% NaCl in the concentrations as outlined below are prepared under sterile conditions. Controls were also prepared under sterile conditions. The control as well as the mixtures were then deposed in 96-deep well plates (1.6 ml/well). The wells were contaminated with the respective bacterial or the fungal strains at 2.5*10^5 to 5.6*10^5 cfu/ml for the bacteria and 1*10^4 to 2.5*10^4 cfu/ml for the fungi to obtain the initial contamination as outlined below. After the contamination, each well was thoroughly mixed to ensure a homogeneous distribution of microbes. Then each plate was incubated at 22° C. for 24 h. The counting of the (remaining) population is carried out 24 h after contamination. Then, the average log reduction is calculated [−log 10{(value inoculum)/(value sample)}] which is represented in tables 1-5.

The subject of the next experiment is Aspergillus brasiliensis. The settings on record: 0.3 wt.-% DBO, 24 h at 22° C. The procedure:
as §1, with “The wells were contaminated with the respective bacterial or the fungal strains at 2.5*10^5 to 5.6*10^5 cfu/ml for the bacteria and 1*10^4 to 2.5*10^4 cfu/ml for the fungi to obtain the initial contamination as outlined below.” left out

The subject of another experiment is Staphylococcus aureus. The note with it: 0.3 wt.-% HAP, 24 h. How it is done: as §1
The test system of another experiment is Escherichia coli. The note with it: 0.2 wt.-% Sodium Benzoate, 24 h. The procedure:
as §1

Consider `c1ccc2oc(-c3ccc(-c4nc5ccccc5o4)cc3)nc2c1` [DBO, 1,4-di(benzoxazol-2′-yl)benzene], for which the Log reduction was −0.51 with Candida albicans (0.3 wt.-% DBO, 24 h at 22° C.) and −2.05 with Aspergillus brasiliensis. In addition, the “24 h colony count” value in the experiment with Candida albicans (0.3 wt.-% DBO, 24 h at 22° C., inoculum 32000 cfu/ml) was found to be 10000 cfu/ml; in the experiment with Aspergillus brasiliensis (inoculum 45000 cfu/ml), 400 cfu/ml.
`CC(=O)c1ccc(O)cc1` [HAP, 1-(4-hydroxyphenyl)-ethanone]: in the experiment with Staphylococcus aureus, the Log reduction is on record as −1.16. Moreover, the “Staphylococcus aureus colony count” value in the experiment on Staphylococcus aureus (550000 cfu/ml at 0 h) amounted to 70000 cfu/ml.
With `OCCCO` [PDO, 1,3-propanediol], the Log reduction in the experiment with Candida albicans (1.0 wt.-% PDO, 24 h) is given as −0.24. In the experiment with Candida albicans (1.0 wt.-% PDO, 24 h, 70000 cfu/ml at 0 h), the “Candida albicans colony count” value is 40000 cfu/ml.
Take `O=C([O-])c1ccccc1.[Na+]` [Sodium Benzoate, sodium benzoate]: the Log reduction entry with Escherichia coli is listed as “+0.40”. Besides, the “Escherichia coli colony count” value in the experiment with Escherichia coli (400000 cfu/ml at 0 h) worked out at 1000000 cfu/ml.
